Data on one molecule can be found in patent publication US20100266191A1, “METHOD FOR QUANTIFYING AN UNDERLYING PROPERTY OF A MULTITUDE OF SAMPLES” (priority 2007, published 2010).

This assay deals with GFP-human Akt3 fusion protein. Kind of assay: Akt3/PKBγ Redistribution assay (inhibition of IGF-I-stimulated membrane translocation). The format is cell-based. Particulars: dose response fit of the estimated process coordinate, two-parameter formula, FIG. 15; IGF-I as reference agonist; read-out: Wortmannin concentration causing 50% changes (a). The protocol: The Akt3/PKBγ Redistribution® assay from BioImage (http://www.bioimage.com) monitors translocation of GFP-human Akt3 fusion protein from the cytoplasm to the plasma membrane. Insulin-like growth factor-I (IGF-I) is used as reference agonist, and compounds are assayed for their ability to inhibit IGF-I-stimulated membrane translocation of Akt3/PKBγ. In inhibited cells, fluorescence is quite evenly distributed in the cytoplasmic space. In activated cells, there are spots of high intensity on the membrane area. Exemplary images from negative and positive control samples are presented on FIG. 1. […] The measured profiles for a series of positive and negative control samples are presented on FIG. 10. […] The measured profiles aid us in deciding how many segments we create and where their borders are. […] On FIG. 12, mean intensities of the three segments are plotted as read out parameters from images of positive control samples (left) and negative control samples (right). […] It is a linear combination of original intensities determined from the condition given in Eq. 4. […]

The structures appear in SMILES notation.

Consider `COC[C@H]1OC(=O)c2coc3c2[C@@]1(C)C1=C(C3=O)[C@@H]2CCC(=O)[C@@]2(C)C[C@H]1OC(C)=O` [Wortmannin, wortmannin], for which the IC50 is 36.4 ± 3 nM.
